Results: ChEMBL document CHEMBL2390887, “Pyrazole derivatives as inhibitors of arachidonic acid-induced platelet aggregation” (Eur J Med Chem, 2013)
pIC50: −log10 of the molar value. The source made the active and inactive calls. The calls are words filed in the database; no cut-off is given here.

How the values were obtained:
Format in all cases: functional
[1] = Antiplatelet activity in human platelet rich plasma assessed as inhibition of collagen-induced platelet aggregation at 1 uM preincubated for 3 mins before collagen challenge by turbidimetric method
[2] = Antiplatelet activity in human platelet rich plasma assessed as inhibition of arachidonic acid-induced platelet aggregation preincubated for 3 mins before arachidonic acid challenge by turbidimetric method
[3] = (§1) Antiplatelet activity in human platelet rich plasma assessed as inhibition of ADP-induced platelet aggregation at 10 uM preincubated for 3 mins before ADP challenge by turbidimetric method
[4] = Antiplatelet activity in human platelet rich plasma assessed as inhibition of collagen-induced platelet aggregation at 10 uM preincubated for 3 mins before collagen challenge by turbidimetric method
[5] = (§2) Antiplatelet activity in human platelet rich plasma assessed as inhibition of arachidonic acid-induced platelet aggregation at 10 uM preincubated for 3 mins before arachidonic acid challenge by turbidimetric method
[6] = (§3) Antiplatelet activity in human platelet rich plasma assessed as inhibition of arachidonic acid-induced platelet aggregation at 1 uM preincubated for 3 mins before arachidonic acid challenge by turbidimetric method
Platelet [7] = assay: as §1
Platelet [8] = assay: as §3
Platelet [9] = assay: as §2
[10] = Antiplatelet activity in human platelet rich plasma assessed as inhibition of arachidonic acid-induced platelet aggregation at 100 uM preincubated for 3 mins before arachidonic acid challenge by turbidimetric method

Compound	pIC50 [2]	inhibition at 10 µM [4] [%]	inhibition at 10 µM [5] [%]	inhibition at 1 µM [6] [%]	other results
COc1ccc(-n2nc(C(=O)Nc3ccncc3)cc2-c2ccc(Cl)cc2)nn1	6.96	73.6	80.5	84.9	inhibition at 1 µM [1]: 77.6%; inhibition at 10 µM [3]: 8.14%
COc1ccc(-c2onc(C(=O)N3CCCCC3)c2-c2ccc(Cl)cc2)cc1	5.30	–	–	–	–
COc1ccc(NC(=O)c2cc(-c3ccc(Cl)cc3)n(-c3ccc(OC)nn3)n2)cc1	6.40	72.1	79.9	94.2	inhibition at 1 µM [1]: 43.6%; inhibition at 10 µM [3]: 3.92%
O=C(c1cc(-c2ccc(Cl)cc2)n[nH]1)N1CCCCC1	< 5.00	–	–	–	–
COc1ccc(-n2nc(C(=O)Oc3cccnc3Cl)cc2-c2ccc(Cl)cc2)nn1	–	8.49	86.5	–	inhibition (Platelet [7]): inactive; inhibition (Platelet [8]): inactive
Cn1nc(-c2ccc(Cl)cc2)cc1C(=O)N1CCCCC1	< 5.00	–	–	–	–
COc1ccc(-n2nc(C(=O)OCCC(C)C)cc2-c2ccc(Cl)cc2)nn1	5.88	66.7	91.2	19	inhibition at 1 µM [1]: 34.2%; inhibition at 10 µM [3]: 6.77%
COc1ccc(-n2nc(C(=O)N3CCN(c4ccc(F)cc4)CC3)cc2-c2ccc(Cl)cc2)nn1	–	32.2	79.7	–	inhibition (Platelet [7]): inactive; inhibition (Platelet [8]): inactive
CCCOc1ccc(OC(=O)c2cc(-c3ccc(Cl)cc3)n(-c3ccc(OC)nn3)n2)cc1	–	61.9	93	3.87	inhibition at 1 µM [1]: 32.2%; inhibition (Platelet [7]): inactive
COc1ccc(-n2nc(C(=O)N3CCN(c4ncccn4)CC3)cc2-c2ccc(Cl)cc2)nn1	–	22.9	–	–	inhibition at 10 µM [3]: 2.7%; inhibition (Platelet [9]): inactive; inhibition (Platelet [8]): inactive
COc1ccc(-n2nc(C(=O)Oc3ccc(C)cc3)cc2-c2ccc(Cl)cc2)nn1	–	48.5	95	23.6	inhibition (Platelet [7]): inactive
COc1ccc2c(c1)c(CC(=O)O)c(C)n2C(=O)c1ccc(Cl)cc1 [INDOMETHACIN]	5.79	–	–	–	–
COc1ccc(-n2nc(C(=O)Oc3ccc(-n4ccnc4)cc3)cc2-c2ccc(Cl)cc2)nn1	–	2.11	90	5.25	inhibition (Platelet [7]): inactive
COc1ccc(OC(=O)c2cc(-c3ccc(Cl)cc3)n(-c3ccc(OC)nn3)n2)cc1	–	24.2	84.2	6.05	inhibition (Platelet [7]): inactive
COc1ccc(-n2nc(C(=O)N3CCOCC3)cc2C)nn1	< 5.00	–	–	–	–
COc1ccc(-n2nc(C(=O)N3CCN(c4ccc(C(F)(F)F)cn4)CC3)cc2-c2ccc(Cl)cc2)nn1	5.26	16	65.5	10.9	inhibition at 10 µM [3]: 6.8%
COc1ccc(-n2nc(C(=O)Oc3ccc(C4CCCC4)cc3)cc2-c2ccc(Cl)cc2)nn1	–	19.9	86.7	–	inhibition (Platelet [7]): inactive; inhibition (Platelet [8]): inactive
COc1ccc(-n2nc(C(=O)Oc3cccc(C(C)C)c3)cc2-c2ccc(Cl)cc2)nn1	–	42.3	84	8.97	inhibition (Platelet [7]): inactive
COc1ccc(-n2nc(C(=O)N3CCCCC3)cc2C)nn1	< 5.00	–	–	–	–
COc1ccc(-n2nc(C(=O)Nc3ccc(Cl)cc3)cc2-c2ccc(Cl)cc2)nn1	6.21	70.5	74.3	80.9	inhibition at 1 µM [1]: 25.7%; inhibition at 10 µM [3]: 7.93%
CC(=O)Oc1ccccc1C(=O)O [ASPIRIN]	5.11	–	–	–	–
COc1ccc(-n2nc(C(=O)Oc3ccc4ccccc4c3)cc2-c2ccc(Cl)cc2)nn1	–	22.4	86.3	2.36	inhibition at 10 µM [3]: 3.34%
CCOC(=O)c1cc(-c2ccc(Cl)cc2)n(-c2ccc(Cl)nn2)n1	–	–	–	–	inhibition at 100 µM [10]: 67%
COc1ccc(-n2nc(CCC(=O)N3CCCCC3)cc2-c2ccc(Cl)cc2)nn1	6.04	–	–	–	–

Further lines, with some results ahead:

pIC50 [2]	Compound	inhibition at 10 µM [4] [%]	inhibition at 10 µM [5] [%]	inhibition at 1 µM [6] [%]	other results
4.90	O=C(c1cc(-c2ccc(Cl)cc2)n(-c2ccc(=O)[nH]n2)n1)N1CCOCC1	–	–	–	–
5.68	O=C(c1cc(-c2ccc(Cl)cc2)n(-c2ccc(=O)[nH]n2)n1)N1CCCCC1	–	–	–	–
7.08	COc1ccc(-n2nc(C(=O)N3CCOCC3)cc2-c2ccc(Cl)cc2)nn1	70.9	94.8	92.7	inhibition at 1 µM [1]: 74.2%; inhibition at 10 µM [3]: 11.3%
7.82	COc1ccc(-n2nc(C(=O)N3CCCC3)cc2-c2ccc(Cl)cc2)nn1	–	–	–	–
4.74	COc1ccc(-c2onc(C(=O)N3CCOCC3)c2-c2ccc(Cl)cc2)cc1	–	–	–	–
< 4.70	CS(=O)(=O)c1ccc(-n2nc(C(=O)N3CCOCC3)cc2-c2ccc(Cl)cc2)nn1	–	–	–	–
7.39	COc1ccc(-n2nc(C(=O)N3CCCCC3)cc2-c2ccc(Cl)cc2)nn1	71.1	94.8	92.9	inhibition at 1 µM [1]: 76.8%; inhibition (Platelet [7]): inactive
< 5.00	O=C(c1cc(-c2ccc(Cl)cc2)n[nH]1)N1CCOCC1	–	–	–	–
5.33	COc1ccc(-n2nc(C(=O)N3CCN(c4ccc(C)cc4)CC3)cc2-c2ccc(Cl)cc2)nn1	20.1	97.6	3.96	inhibition (Platelet [7]): inactive
8.24	COc1ccc(-n2nc(C(=O)N3CCCC3)cc2-c2ccc(Cl)cc2)cc1	–	–	–	–
8.10	COc1ccc(-n2nc(C(=O)N3CCCCC3)cc2-c2ccc(Cl)cc2)cc1	–	–	–	–
8.14	COc1ccc(-n2nc(C(=O)N3CCOCC3)cc2-c2ccc(Cl)cc2)cc1	–	–	–	–
< 5.00	Cn1nc(-c2ccc(Cl)cc2)cc1C(=O)N1CCOCC1	–	–	–	–
5.97	COc1ccc(-n2nc(CCC(=O)N3CCOCC3)cc2-c2ccc(Cl)cc2)nn1	–	–	–	–
4.71	CS(=O)(=O)c1ccc(-n2nc(C(=O)N3CCCCC3)cc2-c2ccc(Cl)cc2)nn1	–	–	–	–
